Test results as given in patent publication US20220079962A1, “NUTRITIONAL COMPOSITION COMPRISING 2'FUCOSYLLACTOSE AND DIETARY BUTYRATE” (N.V. Nutricia, priority 2019, published 2022).

Assays:
Caco-2 cell monolayer = experiment: DON-induced impairment of Caco-2 cell monolayer integrity (TEER, lucifer yellow flux); type: cell-based, human
Method: Caco-2 cells were used according to established methods. In brief: cells were cultured in Dulbecco's modified Eagle medium (DMEM) and seeded at a density of 0.3×10^5 cells into 0.3 cm^2 high pore density (0.4 μm) inserts with a polyethylene terephthalate membrane (BD Biosciences, Franklin Lakes, N.J., USA) placed in a 24-well plate. The Caco-2 cells were maintained in a humidified atmosphere of 95 air and 5% CO2 at 37° C.
Caco-2 cell monolayers were thus grown in a transwell system, which is a model for intestinal barrier function. The monolayers were pretreated for 24 h with different GLs, including beta3′-GL, alpha3′-GL, beta4′-GL and beta6′-GL in a concentration of 0.75 wt. % of the GL, before being exposed to the fungal toxin deoxynivalenol (DON), which is a trigger and model compound to impair intestinal barrier. DON was diluted to a final concentration of 4.2 μM in complete cell medium and added to the apical side as well as to the basolateral side of the transwell inserts. […] Incubation with DON was 24 h.
Measurements of the transepithelial electrical resistance (TEER) and lucifer yellow (LY) permeability were conducted to investigate barrier integrity. For TEER measurements a Millicel-ERS voltohmmeter connected to a pair of chopsticks electrodes was used to measure the TEER values. Results are expressed as a percentage of the initial value. For paracellular tracer flux assay the membrane impermeable lucifer yellow (LY) (Sigma, St Louis, Mo., USA) was added in a concentration of 16 μg/ml to the apical compartment in the transwell plate for 4 h, and the paracellular flux was determined by measuring the fluorescence intensity in the basolateral compartment with a spectrophotofluorimeter (FLUOstar Optima, BMG Labtech, Offenburg, Germany) set at excitation and emission wavelengths of 410 and 520 nm, respectively. Release of interleukin-8 (IL-8 or CXCL8), which is a typical marker for inflammation, was quantified in the medium of the apical side and the basolateral side of the Caco-2 transwell inserts in response to the treatments. CXCL8 concentrations were measured by using the human IL-8 ELISA assay (BD Biosciences, Pharmingem, San Diego, Calif., USA) according to manufacturer's instructions. For more details on materials and methods see Akbari et al, 2016, Eur J Nutr. 56(5):1919-1930.

[1] = test system: human peripheral blood mononuclear cells (PBMC); experiment: PBMC cytokine levels, CD3/CD28 stimulated condition; type: cell-based; details: for Relative level of CCL17, observed / Relative level of IL-4, observed / Relative level of IL-13, observed: blanc = 1, 0.2 wt % 2′-FL, 0.1 wt % 3′-GL, mean
Method: Isolation of PBMC from healthy donors: Human peripheral blood mononuclear cells (PBMC) from healthy donors were isolated from buffy coats (Sanquin, Amsterdam, the Netherlands). PBMC were obtained by centrifugation using Leucosep tubes (Greiner Bio-One). PBMC were collected and washed in PBS (Gibco, Thermo Fisher Technologies)+2% heat-inactivated FCS (Invitrogen), followed by hypotonic lysis of erythrocytes with sterile lysis buffer (0.15 M NH4Cl, 0.01 M KHCO3 and 0.1 mM EDTA, pH of 7.4 at 4° C., all from Merck, Darmstadt, Germany). After lysis, the PBMC were resuspended in freezing medium (70% RPMI 1640 medium (Gibco, Thermo Fisher Technologies) supplemented with 10% heat-inactivated FCS and 100 U/ml penicillin-streptomycin, 20% heat-inactivated FCS and 10% DMSO (Sigma)) and cryopreserved.
PBMC activation model: PBMC (0.2.10^6 cell/well) were cultured in 96-well flat bottom plates (Corning). For 24 hours the cells were pre-incubated with 2′-FL (Jennewein), 3′-GL (0-0.3% w/v; Carbosynth) or sodium butyrate (0.2 mM; Sigma Aldrich) and combinations thereof. Subsequently, the cells were CD3/CD28-activated (Pelicluster CD3 and Pelicluster CD28, Sanquin) for an additional 24 hours. After incubation, IFNγ was measured by ELISA in the supernatants (see below). To determine cell activity after stimulation, PBMC were incubated with cell proliferation reagent WST-1 (10 μl; Roche) and/or 10% Triton (5 μl; negative control). After 3 hours, absorbance was measured at OD450 nm and OD650 nm and cell activity was calculated according to manufacturer's instructions.
Cytokine production of PBMC: PBMC were incubated with indicated reagents. After incubation, the supernatants were collected and IL2, IL6, IL10, IL13, IL21, TNFα, IFNγ, MIF, CCL1, CCL13, CCL17, CCL20, CCL22 and CXCL8-11 levels were measured by conducting a validated multiplex immunoassay based on Luminex technology (xMAP, Luminex Austin Tex. USA). Acquisition was conducted with the Biorad FlexMAP3D (Biorad laboratories, Hercules USA) in combination with xPONENT software version 4.2 (Luminex). Data was analyzed by 5-parametric curve fitting using Bio-Plex Manager software, version 6.1.1 (Biorad).
After PBMC stimulation, cell culture supernatants were collected, after which cytokine responses were measured in order to test immune responsiveness of the cells. […] In addition, since each donor is reacting in its own efficiency onto the T cell stimulus, we calculated the individual index of cytokine response by dividing the intervention induced response by the basal stimulated response.
Subsequently, in order to test the direct effect of specific compounds on PBMC activity, the cells were activated with CD3/CD28 for 24 hours after a pre-incubated for 24 h with either 2′-FL, 3′-GL and combinations thereof. In addition, since each donor is reacting in its own efficiency onto the T cell stimulus, the individual index of cytokine response was calculated by dividing the intervention induced response by the basal stimulated response (the blanc is set at 1). In this way the intervention within 10 different donors has been studied.

[2] = test system: human peripheral blood mononuclear cells (PBMC); experiment: PBMC cell activity (WST-1); type: cell-based; details: after 24 h
Method: PBMC activation model: PBMC (0.2.10^6 cell/well) were cultured in 96-well flat bottom plates (Corning). For 24 hours the cells were pre-incubated with 2′-FL (Jennewein), 3′-GL (0-0.3% w/v; […] Sigma Aldrich) and combinations thereof. Subsequently, the cells were CD3/CD28-activated (Pelicluster CD3 and Pelicluster CD28, Sanquin) for an additional 24 hours. After incubation, IFNγ was measured by ELISA in the supernatants (see below). […] Roche) and/or 10% Triton (5 μl; negative control).

[3] = DON 4.2 μM with 2′-FL 1 mg/ml, mean

Compound | effect on DON induced reduction in TEER and increase in LYF (Caco-2 cell monolayer; 2′-FL 1 mg/ml) | Lucifer yellow flux (Caco-2 cell monolayer; [3]) | TEER (% of initial value) (Caco-2 cell monolayer; [3]) | CCL17 levels [1] | levels of IL-4 and IL-13 compared to control [1] | Relative level of CCL17, observed [1] | Relative level of IL-4, observed [1] | Relative level of IL-13, observed [1] | Immune cell activity as measured by WST [2] | effect on DON-induced loss of epithelial barrier integrity (TEER, LY flux) (Caco-2 cell monolayer; 24 h pretreatment with 0.75 wt. % GL, then DON 4.2 μM 24 h, FIGS. 1A-D)
C[C@@H]1O[C@@H](O[C@H]2[C@H](O[C@H]3[C@H](O)[C@@H](O)C(O)O[C@@H]3CO)O[C@H](CO)[C@H](O)[C@@H]2O)[C@@H](O)[C@H](O)[C@@H]1O (stereo partly drawn) [2′-FL, α-L-Fuc-(1→2)-β-D-Gal-(1→4)-D-Glc] | statistically significantly prevent the DON induced reduction in TEER and increase in LYF | 446.4 ng/ml (cm^2 × h) | 42.79 % of initial value | no significant effect on CCL17 levels | had no effect on the levels of IL-4 and IL-13 | 1.061 | 0.9887 | 1.039 | significantly increased | 
Gal (beta 1-3)-Gal (beta 1-4)-Glc [3′-GL] |  |  |  | no significant effect on CCL17 levels | a decrease was detected | 0.6212 | 0.5825 | 0.5472 | decrease in activation | prevented the DON-induced loss of epithelial barrier integrity
